Read-outs that look alike come from different tables or passages of the source. Numbered stars: 1 amine (or outer) side, 2 acyl side, 3 side chain; on linkers, the order of the positions; unused ones are H or OH. Bridge positions count the residues as written; N and C are the ends. Square brackets hold non-standard residues; d marks the D form. Peptide text beside a SMILES is read from it. I, II: the chains in the order shown. Phe(4-tBu) = CC(C)(C)c1ccc(C[C@H](N)C(=O)O)cc1; Diglycolyl = O=C(COCC(=O)[*:2])[*:1]; NMeR = CN[C@@H](CCCNC(=N)N)C(=O)O; NMeK = CN[C@@H](CCCCN)C(=O)O; Pen = CC(C)(S)[C@H](N)C(=O)O
Experiment: Simulated Intestinal Fluid (SIF) Stability Assay
Type: in vitro ADME, porcine
Details: pig, simulated intestinal fluid (SIF) with porcine pancreatin, pH 6.5, Table 3-B
Experimental: Studies were carried out in simulated intestinal fluid (SIF) to evaluate intestinal stability of the peptide molecules of the instant invention. To prepare the SIF reagent, blank FASSIF was prepared by dissolving 0.348 g NaOH, 3.954 g sodium phosphate monobasic monohydrate and 6.186 g NaCl in a final volume of 1 liter water (final pH=6.5). To this solution, 24 g porcine pancreatin (Sigma catalog P7545) was added and stirred for 30 minutes (final pancreatin concentration is 2.4%). The solution was filtered through a cheese cloth and a No. 1 Whatman filter, and 10 ml aliquots were stored at −70° C. To run the reaction, a 10 ml aliquot was thawed at 37° C., and 125 ul aliquots were removed and mixed with an equal volume of blank FASSIF. The peptide stock solution (10 mM in 100% DMSO) was diluted 75-fold in blank FASSIF. A 50 μl aliquot of the diluted peptide was combined with 125 μl pancreatin (2.4%) and 125 μl blank FASSIF to yield final concentrations of 1% pancreatin and 22 μM peptide. The reactions were incubated at 37° C., and at various time points 50 μl aliquots were removed and added to 200 μl of quench solution containing 50% acetonitrile, 50% methanol, 5% formic acid, and 1 μg/ml internal standard. The quenched samples were centrifuged at 10,000 rpm for 10 minutes, and the supernatants were analyzed by LCMS/MS. The percent remaining at each time point was calculated based on the peak area response ratio of test to compound to internal standard. Half-lives were calculated by fitting to a first-order exponential decay equation using GraphPad.

[1] = > means experiment was stopped at that time and half life was not reached, read-out: Stabilty SIF t1/2
[2] = alone or in parentheses after >360, read-out: Stabilty SIF t1/2, in hr (converted)

| half-life at 22 μM [2] [h] | Compound | half-life at 22 μM [1] [h] | half-life at 22 μM (in parentheses after >180, read-out: Stabilty SIF t1/2, value in parentheses) [h] |
| --- | --- | --- | --- |
| 11 | CC(=O)N[C@@H]1C(=O)N(C)[C@@H](CCCNC(=N)N)C(=O)N[C@@H](CO)C(=O)N[C@@H](CC(=O)O)C(=O)N[C@@H]([C@@H](C)O)C(=O)N[C@@H](CC(C)C)C(=O)N[C@H](C(=O)N[C@@H](Cc2ccc(C(C)(C)C)cc2)C(=O)N[C@@H](CCC(=O)O)C(=O)N(C)[C@@H](CCCCNC(=O)COCC(=O)NCCCC[C@@H](C(N)=O)N(C)C(=O)[C@H](CCC(=O)O)NC(=O)[C@H](Cc2ccc(C(C)(C)C)cc2)NC(=O)[C@H]2NC(=O)[C@H](CC(C)C)NC(=O)[C@H]([C@@H](C)O)NC(=O)[C@H](CC(=O)O)NC(=O)[C@H](CO)NC(=O)[C@H](CCCNC(=N)N)N(C)C(=O)[C@@H](NC(C)=O)C(C)(C)SSC2(C)C)C(N)=O)C(C)(C)SSC1(C)C [compound 133] (I: Ac-[Pen][NMeR]SDTL[Pen][Phe(4-tBu)]E[NMeK]-NH2 / II: Ac-[Pen][NMeR]SDTL[Pen][Phe(4-tBu)]E[NMeK]-NH2; disulfide I:1-I:7, II:1-II:7; linker I:10-II:10 via Diglycolyl) | > 6 |  |
|  | CC(=O)N[C@@H]1C(=O)N(C)[C@@H](CCCNC(=N)N)C(=O)N[C@@H](CO)C(=O)N[C@@H](CC(=O)O)C(=O)N[C@@H]([C@@H](C)O)C(=O)N[C@@H](CC(C)C)C(=O)N[C@H](C(=O)N[C@@H](Cc2ccc(C(C)(C)C)cc2)C(=O)N[C@@H](CCC(=O)O)CC(=O)N[C@H](CCCCNC(=O)CN(CC(=O)NCCCC[C@@H](NC(=O)C[C@H](CCC(=O)O)NC(=O)[C@H](Cc2ccc(C(C)(C)C)cc2)NC(=O)[C@H]2NC(=O)[C@H](CC(C)C)NC(=O)[C@H]([C@@H](C)O)NC(=O)[C@H](CC(=O)O)NC(=O)[C@H](CO)NC(=O)[C@H](CCCNC(=N)N)N(C)C(=O)[C@@H](NC(C)=O)C(C)(C)SSC2(C)C)C(N)=O)C(=O)CCNC(=O)CCCCCC2(C)C(=CC=CC=CC3=[N+](CCCS(=O)(=O)[O-])c4ccc(S(=O)(=O)O)cc4C3(C)C)N(CCCS(=O)(=O)O)c3ccc(S(=O)(=O)O)cc32)C(N)=O)C(C)(C)SSC1(C)C (single isomer, unassigned) [compound 183] | > 3 | 7.77 |
| 9 | CC(=O)N[C@@H]1C(=O)N(C)[C@@H](CCCNC(=N)N)C(=O)N[C@@H](CO)C(=O)N[C@@H](CC(=O)O)C(=O)N[C@@H]([C@@H](C)O)C(=O)N[C@@H](CC(C)C)C(=O)N[C@H](C(=O)N[C@@H](Cc2ccc(C(C)(C)C)cc2)C(=O)N[C@@H](CCC(=O)O)C(=O)N[C@H](CCCCNC(=O)COCC(=O)NCCCC[C@@H](NC(=O)[C@H](CCC(=O)O)NC(=O)[C@H](Cc2ccc(C(C)(C)C)cc2)NC(=O)[C@H]2NC(=O)[C@H](CC(C)C)NC(=O)[C@H]([C@@H](C)O)NC(=O)[C@H](CC(=O)O)NC(=O)[C@H](CO)NC(=O)[C@H](CCCNC(=N)N)N(C)C(=O)[C@@H](NC(C)=O)C(C)(C)SSC2(C)C)C(N)=O)C(N)=O)C(C)(C)SSC1(C)C [compound 131] (I: Ac-[Pen][NMeR]SDTL[Pen][Phe(4-tBu)]E[dK]-NH2 / II: Ac-[Pen][NMeR]SDTL[Pen][Phe(4-tBu)]E[dK]-NH2; disulfide I:1-I:7, II:1-II:7; linker I:10-II:10 via Diglycolyl) | > 6 |  |
|  | CC(=O)N[C@@H]1C(=O)N(C)[C@@H](CCCNC(=N)N)C(=O)N[C@@H](CO)C(=O)N[C@@H](CC(=O)O)C(=O)N[C@@H]([C@@H](C)O)C(=O)N[C@@H](CC(C)C)C(=O)N[C@H](C(=O)N[C@@H](Cc2ccc(C(C)(C)C)cc2)C(=O)N[C@@H](CCC(=O)O)CC(=O)N[C@H](CCCCNC(=O)CN(CC(=O)NCCCC[C@@H](NC(=O)C[C@H](CCC(=O)O)NC(=O)[C@H](Cc2ccc(C(C)(C)C)cc2)NC(=O)[C@H]2NC(=O)[C@H](CC(C)C)NC(=O)[C@H]([C@@H](C)O)NC(=O)[C@H](CC(=O)O)NC(=O)[C@H](CO)NC(=O)[C@H](CCCNC(=N)N)N(C)C(=O)[C@@H](NC(C)=O)C(C)(C)SSC2(C)C)C(N)=O)C(=O)CCNC(=O)c2ccc(-c3c4ccc(=N)c(S(=O)(=O)O)c-4oc4c(S(=O)(=O)O)c(N)ccc34)c(C(=O)O)c2)C(N)=O)C(C)(C)SSC1(C)C [compound 182] | > 3 |  |

Source: US9809623B2, “α4β7 peptide monomer and dimer antagonists” (Protagonist Therapeutics, Inc., priority 2014, dated 2017)
